“Also recorded” adds a separate entry of the source.

The nature of data set [1]: In vitro skin diffusion through shed snake skin in horizontal flow-through diffusion cells. It is filed as in vitro ADME, Children's Python. The following applies: result in words. The text has this: The Children's Python shed snake skin was obtained during natural shedding and the dorsal skin was used. Shed snake skin has shown to be a suitable model membrane for human skin by Itoh, et al., Use of Shed Snake Skin as a Model Membrane for In Vitro Percutaneous Penetration Studies: Comparison with Human Skin Pharm.
Method of Conducting In-Vitro Skin Diffusion Experiments in Horizontal Diffusion Cells
A modified stainless steel flow-through diffusion cell assembly based on that first shown by Cooper in J. Pharm. Sci. 73, 1984, was used to perform the experiments on diffusion of the drugs from various donor compositions through snake skin.
Topical formulations are weighed out onto the skin substrate which has an area of 0.79 cm^2. Active substance penetrates through the skin and into the receptor solution in the bottom section of the cell. Inlet and outlet tubes connected to the receptor chamber maintain skin conditions.
The temperature of the skin was maintained at 32° C.
The receptor solution consisted of 50% propylene glycol in water, made isotonic with 0.9% sodium chloride and preserved with 0.1% sodium azide.
The concentration of applied drug in each diffusion cell sample was measured using high pressure liquid chromatography (HPLC) and absorbance detection. The results reported for each experiment are average values of the replicate diffusion cells. […]

The next data set concerns Candida albicans. The following applies: result in words.

Description for Candida albicans: The gels and cream were applied to round glass cover slips of 5 cm^2 each. The application rate for all products was 5 mg/cm^2.
After drying, the coated side of the slides were placed on MEA plates which had been previously seeded with a culture of C. albicans. The plates were incubated at 37° C. for 72 hours. The zone of inhibition was measured around the test slides at the end of the incubation period. Furthermore the slides were removed and an assessment of the growth of the test organism was made in the contact zone with the slide. All tests were performed in duplicate.

As for `CC(C(=O)O)c1cccc(C(=O)c2ccccc2)c1` (stereo not drawn) [Ketoprofen, ketoprofen], the “penetration / rate of release of Ketoprofen into the skin (FIG. 3)” value in data set [1] (Example 3, varying level of Dermacryl 79) was “the rate of the release of Ketoprofen into the skin of the subject can be varied”. In addition, the “penetration of ketoprofen (FIG. 5)” value in data set [1] (Example 8, different hydrophobic polymers) is given as “can be controlled through the incorporation of hydrophobic polymers”.

`Clc1ccccc1C(c1ccccc1)(c1ccccc1)n1ccnc1` [clotrimazole]: the “activity of clotrimazole in the gel film against C. albicans” value with Candida albicans was “biologically active within the film according to the invention and in fact is more active than the commercial clotrimazole cream; also recorded: could be increased by addition of a plasticiser ie., propylene glycol”.

Source of the values: patent publication US6211250A, “Percutaneous delivery system” (Soltec Research Pty Ltd., priority 1996, dated 2001).
